Converted amounts (≈) assume the structure as drawn. “And” between values parts separate entries of the source, which are not always exact repeats. Equal values may be shown once. Read-outs that look alike come from different tables or passages of the source.
Legend:
[1] = test system: healthy volunteers and patients undergoing a colonoscopy; assay: animal or person; assay type: in vivo, human; conditions: for EC50: Homo sapiens, read-out: EC50, theta (RSE%)
[2] = test system: patients undergoing a colonoscopy; conditions: for Success rate n/N (%): Phase IIb (Study CNS7056-004); for Time to ready for discharge, Mean (SD): after last injection, first of three consecutive Aldrete scores of ≥ 9; for Time to ready for discharge, Mean (SD) / Time to fully alert, Mean (SD): ITT population; for Time to fully alert, Mean (SD): first of three consecutive MOAA/S scores of 5 after the last injection; for Time to Procedure Start, mean (SD): after initial dose
[3] = Physiologically-based population pharmacokinetic analysis of CNS 7056 (Studies CNS 7056-001 and CNS 7056-002); conditions: for V3: arterial; for clearance: human, plasma, intravenous
[4] = human, in vivo
[5] = human, in vivo; remark: listed apart in the source
procedural sedation [6] = conditions: Phase II, cited from earlier work
procedural sedation [7] = conditions: Phase III, cited from earlier work
[8] = highest dose regimen (8.0/3.0 mg)
[9] = lowest dose regimen (5.0/3.0 mg)
[10] = middle dose regimen (7.0/2.0 mg)
[11] = Run 142S, Lung/Central, 3 compartments
[12] = Run 144S, Lung/Liver, 4 compartments

## COC(=O)CC[C@@H]1N=C(c2ccccn2)c2cc(Br)ccc2-n2c(C)cnc21 [CNS 7056, 3-[(4S)-8-bromo-1-methyl-6-(2-pyridinyl)-4H-imidazo[1,2-a][1,4]benzodiazepin-4-yl] propionic methyl ester]
[1]; 1 min
  EC50: 0.332 µg/mL (≈ 0.756 µM)
[1]; 2 min
  EC50: 0.325 µg/mL (≈ 0.74 µM)
[1]
  EC50: 0.369 µg/mL (≈ 0.84 µM)
[1]; in vivo
  EMAX: 5.0
  EMAX, fitted theta (RSE%): 4.88 (1.20) and 4.85 (0.87)
  EMIN (first line so headed), eta IIV (RSE%): 29.73 (15.2) and 28.87 (11.7)
  EMIN (second line so headed), eta IIV (RSE%): 94.18 (38.7)
  Hill Coefficient (γ), theta (RSE%): 3.16 (8.82) and 4.64 (8.81) and 3.92 (6.76) and 3.9 (7.10) and 3.93 (6.81)
  Hill Coefficient, eta IIV (RSE%): 54.72 (24.0) % and 57.77 (24.8) % and 50.35 (22.3) % and 51.71 (22.7) % and 48.59 (21.4) % and 59.37 (25.3) %
  Hill coefficient: 4.03 and 6.627
  Hill coefficient, eta IIV (RSE%): 53.17 (23.0) and 69.49 (30.2)
  Hill coefficient, theta (RSE%): 4.20 (7.47) and 4.62 (8.41)
  IIV for all three pharmacodynamic parameters (EC50, ke0, Hill coefficient): approximately 40%
  increase in EC50 caused by scoping-factor: 10-12%
  increase in EC50 during one- and two-minute spikes of increased MOAA/S score: approximately 30%
  ke0: 13.3 h⁻¹ and 12.17 h⁻¹
  typical Hill coefficient: 4.03
[2]; 7.0 mg initial / 2.0 mg top-ups (middle dose regimen), 40 patients
  Success rate n/N (%) (ITT): 38/40 (95.0%), p = 0.025
[2]; 5.0/3.0 mg
  Success rate n/N (%): 39/40 (97.5%)
  Time to ready for discharge, Mean (SD): 13.5 (4.83) mins
  Time to fully alert, Mean (SD): 13.3 (7.21) mins
[2]; 5.0/3.0
  Time to Procedure Start, mean (SD): 2.65 (1.42) minutes
[2]; 7.0/2.0 mg
  Success rate n/N (%): 38/40 (95.0%)
  Time to Procedure Start, mean (SD): 3.03 (2.17) minutes
  Time to ready for discharge, Mean (SD): 14.0 (6.28) mins
  Time to fully alert, Mean (SD): 11.3 (5.69) mins
[2]; 8.0/3.0 mg
  Success rate n/N (%): 37/40 (92.5%)
  Time to Procedure Start, mean (SD): 2.23 (1.44) minutes
  Time to ready for discharge, Mean (SD): 16.8 (7.54) mins
  Time to fully alert, Mean (SD): 13.6 (7.48) mins
[2]; [8]
  recovery to fully alert: 13.6 min
  time to discharge: 16.8 min
[2]; human, in vivo
  related AESIs (adverse events of special interest): 10
[2]; in vivo
  Success rate n/N (%) (ITT): 95%
  patients requiring manual or mechanical ventilation: no patient required manual or mechanical ventilation
  time to fully alert compared to Midazolam: shorter
[2]; [9]
  recovery to fully alert: 13.3 min
  time to discharge: 13.5 min
[2]; [10]
  recovery to fully alert: 11.3 min
  time to discharge: 14 min
[3]; Run 128S, Lung, 3 compartments
  Blood/Plasma Cardiac Flow, theta (RSE%): 173 (3.37) l/h
  Central Volume, eta IIV (RSE%): 146.9 (52.9) %
  Central Volume, theta (RSE%): 1.71 (15.2) I
  Deep Volume(5), theta (RSE%): 23.4 (4.57) I
  Deep Volume, eta IIV (RSE%): 22.55 (9.94) %
  Inter-Tissue Clearance(4), theta (RSE%): 74.6 (3.29) I/h
  Inter-Tissue Clearance(5), theta (RSE%): 25.7 (6.18) I/h
  Peripheral Volume(4), theta (RSE%): 13.5 (9.18) I
  Peripheral Volume, eta IIV (RSE%): 50.10 (18.0) %
  Pulmonary Clearance, eta IIV (RSE%): 14.35 (6.07) %
  Pulmonary Clearance, theta (RSE%): 49.1 (2.02) I/h
[3]; Run 135S, Lung, 4 compartments
  Blood/Plasma Cardiac Flow, theta (RSE%): 174 (3.59) l/h
  Central Volume, eta IIV (RSE%): 190.2 (66.8) %
  Central Volume, theta (RSE%): 1.24 (19.3) I
  Deep Volume(5), theta (RSE%): 23.8 (4.78) I
  Deep Volume, eta IIV (RSE%): 23.44 (10.3) %
  Deeper Volume(6), theta (RSE%): 12 (20.4) I
  Inter-Tissue Clearance(4), theta (RSE%): 68.5 (5.45) I/h
  Inter-Tissue Clearance(5), theta (RSE%): 42 (5.57) I/h
  Inter-Tissue Clearance(6), theta (RSE%): 3.12 (13.2) I/h
  Peripheral Volume(4), theta (RSE%): 8.14 (12.8) I
  Peripheral Volume, eta IIV (RSE%): 71.40 (25.4) %
  Pulmonary Clearance, eta IIV (RSE%): 14.42 (6.13) %
  Pulmonary Clearance, theta (RSE%): 48.7 (2.00) I/h
[3]; [11]
  Blood/Plasma Cardiac Flow, theta (RSE%): 177 (3.54) l/h
  Central Volume, eta IIV (RSE%): 143.6 (52.2) %
  Central Volume, theta (RSE%): 1.93 (15.8) I
  Deep Volume(5), theta (RSE%): 23.1 (4.58) I
  Deep Volume, eta IIV (RSE%): 22.59 (10.0) %
  Extra-pulmonary Clearance, theta (RSE%): 8.53 (52.4) I/h
  Inter-Tissue Clearance(4), theta (RSE%): 72.4 (3.61) I/h
  Inter-Tissue Clearance(5), theta (RSE%): 25.3 (6.16) I/h
  Peripheral Volume(4), theta (RSE%): 13.4 (9.32) I
  Peripheral Volume, eta IIV (RSE%): 50.48 (18.2) %
  Pulmonary Clearance, eta IIV (RSE%): 17.12 (8.97) %
  Pulmonary Clearance, theta (RSE%): 44.5 (6.11) I/h
[3]; [12]
  Blood/Plasma Cardiac Flow, theta (RSE%): 175 (2.68) l/h
  Central Volume, eta IIV (RSE%): 368.5 (105.) %
  Central Volume, theta (RSE%): 0.834 (15.8) I
  Deep Volume(5), theta (RSE%): 22.7 (5.28) I
  Deep Volume, eta IIV (RSE%): 24.10 (10.9) %
  Deeper Volume(6), theta (RSE%): 10.9 (16.7) I
  Extra-pulmonary Clearance, theta (RSE%): 6.15 (49.7) I/h
  Inter-Tissue Clearance(4), theta (RSE%): 46.2 (7.27) I/h
  Inter-Tissue Clearance(5), theta (RSE%): 40 (5.12) I/h
  Inter-Tissue Clearance(6), theta (RSE%): 3.07 (15.1) I/h
  Peripheral Volume(4), theta (RSE%): 6.47 (13.5) I
  Peripheral Volume, eta IIV (RSE%): 90.06 (30.2) %
  Pulmonary Clearance, eta IIV (RSE%): 16.22 (7.32) %
  Pulmonary Clearance, theta (RSE%): 45.0 (4.24) I/h
[3]; 0.65 x weight/70, Geom. Mean (Typical Value)
  V3: 0.717 I
[3]; 0.65 x weight/70, Subject 1210
  V3: 0.786 I
[3]; 0.65 × weight/70, Geom. Mean (Typical Value)
  V3: 0.717 L
[3]; 0.65 × weight/70, Subject 1210
  V3: 0.786 L
[3]; both, Clearance, Geom. Mean (Typical Value)
  clearance: 819 mL/min
[3]; both, systemic clearance
  clearance: ~1000 mL/min
[3]; Clearance, Subject 1210
  clearance: 732 mL/min
[3]; modelling
  contribution of the liver to clearance: ~10%
  pulmonary extraction ratio, and first-pass metabolism: approximately 28%
[3]; peripheral, Subject 1210
  V4: 21.59 L
[3]; typical single dose 7 mg
  systemic exposure: approximately 0.12 mcg.h/ml
[4]
  V4: 21.59 I
[5]
  Body weight as predictor of systemic clearance: not a statistically significant predictor

## CC(C)c1cccc(C(C)C)c1OCOP(=O)(O)O [Fospropofol]
Procedural sedation [6]; (labelled dose)
  Success rate n/N (%): 18/26 (69.2%)
Procedural sedation [7]; 6.5 mg/kg (labelled dose)
  Success rate n/N (%): 137/158 (86.7%)

## Cc1ncc2n1-c1ccc(Cl)cc1C(c1ccccc1F)=NC2 [Midazolam, reference compound]
[2]; 2.5/1.0 mg
  patients who did not respond to treatment and received Propofol as rescue medication: 25%
  Success rate n/N (%): 30/40 (75.0%)
  Time to Procedure Start, mean (SD): 4.80 (3.19) minutes
  Time to ready for discharge, Mean (SD): 17.1 (7.33) mins
  Time to fully alert, Mean (SD): 15.2 (7.43) mins
Procedural sedation [6]; 0.02 mg/kg
  Success rate n/N (%): 21/26 (80.8%)
Procedural sedation [7]; 0.02 mg/kg
  Success rate n/N (%): 36/52 (69.2%)

From patent US20230346796A1 (priority 2010, published 2023)
